Experimental data as given in US20090111821A1, “AMINO 1,2,4-TRIAZOLE DERIVATIVES AS MODULATORS OF MGLUR5” (AstraZeneca AB, priority 2007, published 2009).

What was measured:
[1] = Determination of brain to plasma ratio in rat; assay type: in vivo; details: brain and plasma, female Sprague Dawley rats, read-out: Brain/Plasma Ratio of compound in Rat
Description: Brain to plasma ratios are estimated in female Sprague Dawley rats. The compound is dissolved in water or another appropriate vehicle. For determination of brain to plasma ratio the compound is administrated as a subcutaneous, or an intravenous bolus injection, or an intravenous infusion, or an oral administration. At a predetermined time point after the administration a blood sample is taken with cardiac puncture. The rat is terminated by cutting the heart open, and the brain is immediately retained. The blood samples are collected in heparinized tubes and centrifuged within 30 minutes, in order to separate the plasma from the blood cells. The plasma is transferred to 96-well plates and stored at −20° C. until analysis. The brains are divided in half, and each half is placed in a pre-tarred tube and stored at −20° C. until analysis. Prior to the analysis, the brain samples are thawed and 3 mL/g brain tissue of distilled water is added to the tubes. The brain samples are sonicated in an ice bath until the samples are homogenized. Both brain and plasma samples are precipitated with acetonitrile. After centrifugation, the supernatant is diluted with 0.2% formic acid. Analysis is performed on a short reversed-phase HPLC column with rapid gradient elution and MSMS detection using a triple quadrupole instrument with electrospray ionisation and Selected Reaction Monitoring (SRM) acquisition. Liquid-liquid extraction may be used as an alternative sample clean-up. The samples are extracted, by shaking, to an organic solvent after addition of a suitable buffer. An aliquot of the organic layer is transferred to a new vial and evaporated to dryness under a stream of nitrogen. After reconstitution of the residuals the samples are ready for injection onto the HPLC column.

human mGluR5d = target: T1, human mGluR5d (Homo sapiens, UniProt P41594); assay: FLIPR assay, mobilization of intracellular calcium in cells expressing human mGluR5d; assay type: cell-based; details: antagonism of agonist response, read-out: FLIPR hmGluR5d
T1 construct: expressed in transfected cells; The cells are kept under hygromycin B and Zeocin selection; The separate IP3 assay names GHEK cells stably expressing human mGluR5d
T1 sequence (P41594 21-942 isoform P41594-3 limits assumed): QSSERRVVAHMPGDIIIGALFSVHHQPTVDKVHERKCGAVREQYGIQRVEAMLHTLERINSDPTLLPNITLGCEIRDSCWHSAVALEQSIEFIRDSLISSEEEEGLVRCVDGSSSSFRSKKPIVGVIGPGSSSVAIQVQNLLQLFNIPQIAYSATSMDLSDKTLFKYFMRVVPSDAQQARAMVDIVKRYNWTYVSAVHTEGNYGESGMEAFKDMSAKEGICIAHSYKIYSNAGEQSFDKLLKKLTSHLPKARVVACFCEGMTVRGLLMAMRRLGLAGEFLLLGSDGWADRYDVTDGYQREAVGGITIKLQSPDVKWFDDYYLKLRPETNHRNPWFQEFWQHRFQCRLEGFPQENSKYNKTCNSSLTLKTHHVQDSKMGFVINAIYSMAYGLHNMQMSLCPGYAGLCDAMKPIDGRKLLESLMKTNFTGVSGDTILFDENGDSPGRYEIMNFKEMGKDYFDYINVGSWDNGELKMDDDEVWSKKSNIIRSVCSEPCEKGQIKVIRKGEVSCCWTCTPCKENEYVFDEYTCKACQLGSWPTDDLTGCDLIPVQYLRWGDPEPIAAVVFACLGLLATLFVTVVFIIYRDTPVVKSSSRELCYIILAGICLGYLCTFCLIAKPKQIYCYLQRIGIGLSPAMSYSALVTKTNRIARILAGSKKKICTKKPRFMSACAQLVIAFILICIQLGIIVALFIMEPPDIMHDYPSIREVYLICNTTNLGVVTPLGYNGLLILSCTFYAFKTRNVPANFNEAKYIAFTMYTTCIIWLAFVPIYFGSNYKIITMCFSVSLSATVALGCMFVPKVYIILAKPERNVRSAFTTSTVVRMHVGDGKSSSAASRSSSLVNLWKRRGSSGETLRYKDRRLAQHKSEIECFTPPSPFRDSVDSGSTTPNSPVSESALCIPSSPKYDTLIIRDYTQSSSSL
Description: Functional Assessment of mGluR5 Antagonism in Cell Lines Expressing mGluR5D
The properties of the compounds of the invention can be analyzed using standard assays for pharmacological activity. Examples of glutamate receptor assays are well known in the art as described in for example Aramori et al., Neuron 8:757 (1992), Tanabe et al. Neuron 8:169 (1992), Miller et al., J. Neuroscience 15: 6103 (1995), Balazs, et al., J. Neurochemistry 69:151 (1997). The methodology described in these publications is incorporated herein by reference. Conveniently, the compounds of the invention can be studied by means of an assay (FLIPR) that measures the mobilization of intracellular calcium, [Ca^2+]i in cells expressing mGluR5 or another assay (IP3) that measures inositol phosphate turnover.
Cells expressing human mGluR5d as described in WO97/05252 cultured in a mixture of high glucose DMEM with Glutamax (31966-021)(500 mL), 10% dialyzed fetal bovine serum (Hyclone #SH30079.03) (56 mL), 200 μg/mL Hygromycin B (Invitrogen 45-0430, 50 mg/mL) (2.2 mL), 200 μg/mL Zeocin (Invitrogen #R250-01; 100 mg/mL) (1.1 mL) are seeded at a density of 100,000 cells per well on collagen coated clear bottom 96-well plates with black sides and cells were allowed to adhere over night before experiments. All assays are done in a buffer containing 146 mM NaCl, 5 mM KCl, 1 mM MgCl2, 1 mM CaCl2, 20 mM HEPES, 1 mg/mL glucose and 1 mg/mL BSA Fraction IV (pH 7.4). Cell cultures in the 96-well plates are loaded for 60 minutes in the above mentioned buffer containing 6 μM of the acetoxymethyl ester form of the fluorescent calcium indicator fluo-3 (Molecular Probes, Eugene, Oreg.) in 0.025% pluronic acid (a proprietary, non-ionic surfactant polyol—CAS Number 9003-11-6). Following the loading period the fluo-3 buffer is removed and replaced with fresh assay buffer. FLIPR experiments are done using a laser setting of 0.700 W and a 0.4 second CCD camera shutter speed with excitation and emission wavelengths of 488 nm and 562 nm, respectively. Each experiment is initiated with 160 μl of buffer present in each well of the cell plate. A 40 μl addition from the antagonist plate was followed by a 50 μL addition from the agonist plate. A 30 minutes, in dark at 25° C., interval separates the antagonist and agonist additions. The fluorescence signal is sampled 50 times at 1-second intervals followed by 3 samples at 5-second intervals immediately after each of the two additions. Responses are measured as the difference between the peak heights of the response to agonist, less the background fluorescence within the sample period. IC50 determinations are made using a […] least squares fitting program.

Row | Kp [1] | IC50 (human mGluR5d) | Structure (SMILES)
1 | 0.03 | 10 nM | CN(Cc1cc(-c2cccc(Cl)c2)on1)c1nnc(-c2ccnnc2)n1C [Example 8.1, N-{[5-(3-Chlorophenyl)isoxazol-3-yl]methyl}-N,4-dimethyl-5-pyridazin-4-yl-4H-1,2,4-triazol-3-amine]
2 | < 0.01 | 52 nM | CCN(Cc1noc(-c2cccc(C)c2)n1)c1nnc(-c2cn[nH]c(=O)c2)n1C [Example 8.5, 5-[5-(Ethyl{[5-(3-methylphenyl)-1,2,4-oxadiazol-3-yl]methyl}amino)-4-methyl-4H-1,2,4-triazol-3-yl]pyridazin-3(2H)-one]
3 | < 0.01 | 75 nM | CCN(Cc1noc(-c2cccc(C)c2)n1)c1nnc(-c2ccn(C)c(=O)c2)n1C [Example 8.6, 4-[5-(Ethyl{[5-(3-methylphenyl)-1,2,4-oxadiazol-3-yl]methyl}amino)-4-methyl-4H-1,2,4-triazol-3-yl]-1-methylpyridin-2(1H)-one]
4 | < 0.01 | 43 nM | CCN(Cc1noc(-c2cccc(Cl)c2)n1)c1nnc(-c2cn[nH]c(=O)c2)n1C [Example 8.4, 5-{5-[{[5-(3-Chlorophenyl)-1,2,4-oxadiazol-3-yl]methyl}(ethyl)amino]-4-methyl-4H-1,2,4-triazol-3-yl}pyridazin-3(2H)-one]
5 | 0.16 | 20 nM | CN(Cc1cc(-c2cccc(Cl)c2)on1)c1nnc(-c2cncnc2)n1C [Example 8.2, N-{[5-(3-Chlorophenyl)isoxazol-3-yl]methyl}-N,4-dimethyl-5-pyrimidin-5-yl-4H-1,2,4-triazol-3-amine]
6 | < 0.01 | 117 nM | Cc1cccc(-c2cc([C@H](C)N(C)c3nnc(-c4ccn(C)c(=O)c4)n3C)no2)c1 [Example 8.3, 1-Methyl-4-[4-methyl-5-(methyl-{(1S)-1-[5-(3-methylphenyl)-isoxazol-3-yl]ethyl}amino)-4H-1,2,4-triazol-3-yl]pyridin-2(1H)-one]

More lines, now with the values behind:

Row | Structure (SMILES) | Kp [1] | IC50 (human mGluR5d)
7 | CC(c1cc(-c2cccc(Cl)c2)on1)N(C)c1nnc(-c2ccn(C)c(=O)c2)n1C (single isomer, unassigned; (-)) [(−) 5.1] | < 0.01 | 30 nM
8 | Cn1c(-c2cn[nH]c(=O)c2)nnc1N(Cc1cc(-c2cccc(Cl)c2)on1)C1CC1 [Example 4.1, 5-{5-[{[5-(3-Chlorophenyl)isoxazol-3-yl]methyl}(cyclopropyl)amino]-4-methyl-4H-1,2,4-triazol-3-yl}pyridazin-3(2H)-one] | < 0.01 | 41 nM
9 | CCN(Cc1cc(-c2cccc(C)c2)on1)c1nnc(-c2ccn(C)c(=O)c2)n1C [Example 4.8, 4-[5-(Ethyl{[5-(3-methylphenyl)isoxazol-3-yl]methyl}amino)-4-methyl-4H-1,2,4-triazol-3-yl]-1-methylpyridin-2(1H)-one] | 0.22 | 112 nM
10 | CN(Cc1cc(-c2cccc(Cl)c2)on1)c1nnc(-c2cc(=O)[nH]cn2)n1C1CC1 [Example 4.5, 6-{5-[{[5-(3-chlorophenyl)isoxazol-3-yl]methyl}(methyl)amino]-4-cyclopropyl-4H-1,2,4-triazol-3-yl}pyrimidin-4(3H)-one] | < 0.01 | 77 nM
11 | Cc1cccc(-c2cc([C@H](C)N(C)c3nnc(-c4cn[nH]c(=O)c4)n3C)no2)c1 [Example 4.11, (−)-5-[4-Methyl-5-(methyl-{(1S)-1-[5-(3-methylphenyl)isoxazol-3-yl]ethyl}amino)-4H-1,2,4-triazol-3-yl]pyridazin-3(2H)-one] | < 0.01 | 43 nM
12 | CCN(Cc1cc(-c2cccc(Cl)c2)on1)c1nnc(-c2cc[nH]c(=O)c2)n1C [Example 4.2, 4-{5-[{[5-(3-Chlorophenyl)-isoxazol-3-yl]methyl}(ethyl)amino]-4-methyl-4H-1,2,4-triazol-3-yl}pyridin-2(1H)-one] | 0.02 | 31 nM
13 | Cc1cccc(-c2cc([C@H](C)N(C)c3nnc(-c4cc[nH]c(=O)c4)n3C)no2)c1 [Example 4.12, (−)-4-[4-Methyl-5-(methyl-{(1S)-1-[5-(3-methylphenyl)-isoxazol-3-yl]ethyl}amino)-4H-1,2,4-triazol-3-yl]pyridin-2(1H)-one] | < 0.01 | 71 nM
14 | CCn1c(-c2cc(=O)[nH]cn2)nnc1N(C)Cc1cc(-c2cccc(Cl)c2)on1 [Example 4.4, 6-{5-[{[5-(3-chlorophenyl)-isoxazol-3-yl]methyl}(methyl)amino]-4-ethyl-4H-1,2,4-triazol-3-yl}pyrimidin-4(3H)-one] | < 0.01 | 13 nM
15 | CCn1c(-c2cc(=O)[nH]cn2)nnc1N(C)Cc1cc(-c2cccc(C)c2)on1 [Example 4.7, 6-[4-Ethyl-5-(methyl{[5-(3-methylphenyl)isoxazol-3-yl]methyl}amino)-4H-1,2,4-triazol-3-yl]pyrimidin-4(3H)-one] | < 0.015 | 53 nM
16 | CC(c1cc(-c2cccc(Cl)c2)on1)N(c1nnc(-c2cn[nH]c(=O)c2)n1C)C1CC1 (single isomer, unassigned; (-)) [(−) 5.2] | < 0.01 | 111 nM
17 | Cc1cccc(-c2cc([C@H](C)N(C)c3nnc(-c4cnn(C)c(=O)c4)n3C)no2)c1 [Example 14, 2-Methyl-5-[4-methyl-5-(methyl{(1S)-1-[5-(3-methylphenyl)isoxazol-3-yl]ethyl}amino)-4H-1,2,4-triazol-3-yl]pyridazin-3(2H)-one] | 0.07 | 12 nM
18 | CCN(Cc1cc(-c2cccc(C)c2)on1)c1nnc(-c2cn[nH]c(=O)c2)n1C [Example 4.6, 5-[5-(Ethyl{[5-(3-methylphenyl)isoxazol-3-yl]-methyl}amino)-4-methyl-4H-1,2,4-triazol-3-yl]pyridazin-3(2H)-one] | 0.01 | 45 nM
19 | CCN(Cc1cc(-c2cccc(Cl)c2)on1)c1nnc(-c2cn[nH]c(=O)c2)n1C [Example 4.3, 5-{5-[{[5-(3-Chlorophenyl)-isoxazol-3-yl]methyl}(ethyl)-amino]-4-methyl-4H-1,2,4-triazol-3-yl}pyridazin-3(2H)-one] | 0.015 | 21 nM
20 | CCN(Cc1cc(-c2cccc(Cl)c2)on1)c1nnc(-c2ccn(C)c(=O)c2)n1C [Example 4.10, 4-{5-[{[5-(3-Chlorophenyl)-isoxazol-3-yl]methyl}(ethyl)amino]-4-methyl-4H-1,2,4-triazol-3-yl}-1-methylpyridin-2(1H)-one] | < 0.01 | 65 nM
21 | CCN(Cc1cc(-c2cccc(C)c2)on1)c1nnc(-c2cc[nH]c(=O)c2)n1C [Example 4.9, 4-[5-(Ethyl{[5-(3-methylphenyl)isoxazol-3-yl]methyl}amino)-4-methyl-4H-1,2,4-triazol-3-yl]pyridin-2(1H)-one] | 0.035 | 53 nM
